The values that follow come from patent US10858342B2, “Bicyclic imidazole derivatives useful for the treatment of renal diseases, cardiovascular diseases and fibrotic diseases” (Boehringer Ingelheim International GmbH, priority 2016, dated 2020).

Holding throughout (format): biochemical, cynomolgus monkey
In experiment [1] the target is aldosterone synthase (CYP11B2) (Macaca fascicularis, UniProt A0A2K5UPL9). The experiment is described as follows: Inhibition of aldosterone synthase (cynomolgus adrenal mitochondria, aldosterone by mass spectrometry). As to conditions: 2 μM corticosterone substrate, 50 units CYP11B2, 90 min, 37° C.; read-out: Aldosterone Inhibition IC50. The gist of the method: (§1)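 Cynomolgus adrenal mitochondria (50 units CYP11B2 activity) incubated with 2 μM corticosterone in 100 mM potassium phosphate pH 7.4, 1% DMSO; started with 1 mM NADPH, 90 min at 37 °C. Aldosterone quantified by mass spectrometry; no-NADPH blank as 0%, no-compound as 100% activity, across compound concentrations.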
Chain of aldosterone synthase (CYP11B2) (Macaca fascicularis, UniProt A0A2K5UPL9) (A0A2K5UPL9 1-503): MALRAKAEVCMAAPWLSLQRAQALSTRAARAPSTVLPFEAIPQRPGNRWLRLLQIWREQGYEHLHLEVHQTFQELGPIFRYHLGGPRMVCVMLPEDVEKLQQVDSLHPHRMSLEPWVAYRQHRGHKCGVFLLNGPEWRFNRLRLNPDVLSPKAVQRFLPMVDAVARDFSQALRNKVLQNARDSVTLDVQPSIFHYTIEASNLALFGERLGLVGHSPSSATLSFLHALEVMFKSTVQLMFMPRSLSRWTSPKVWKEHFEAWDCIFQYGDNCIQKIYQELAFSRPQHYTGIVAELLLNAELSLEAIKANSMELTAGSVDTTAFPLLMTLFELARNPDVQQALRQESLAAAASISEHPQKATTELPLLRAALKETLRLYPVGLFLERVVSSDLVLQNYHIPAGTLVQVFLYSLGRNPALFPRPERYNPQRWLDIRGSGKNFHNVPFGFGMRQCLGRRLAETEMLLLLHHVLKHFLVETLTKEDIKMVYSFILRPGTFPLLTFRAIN

In experiment [2] the test system is aldosterone synthase (CYP11B2). Described as above. To be noted: selectivity for aldosterone synthase inhibition over cortisol synthase (CYP11B1) inhibition, fold. The gist of the method:
as §1

Experiment [3] addresses cortisol synthase (CYP11B1) (Macaca fascicularis, UniProt A0A2K5ULY1). The experiment is described as follows: Inhibition of cortisol synthesis (cynomolgus adrenal mitochondria, cortisol by mass spectrometry). The gist of the method: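 Cynomolgus adrenal mitochondria (150 units CYP11B1 activity) incubated with 11-deoxycortisol in 100 mM potassium phosphate pH 7.4, 1% DMSO; reaction started with 1 mM NADPH, 90 min at 37° C, stopped with MeCN. Cortisol quantified by mass spectrometry; IC50 from 4-parameter logistic fit versus no-compound (100%) and no-NADPH (0%) controls.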

Setting [4] is: 11-deoxycortisol substrate, 150 units CYP11B1; read-out: Cortisol Inhibition IC50.

Read-outs that look alike come from different tables or passages of the source. A value given as a limit tells only on which side of the number the result lay.

With `COC(=O)c1ccc(-n2cnc3c2C(=O)CC(C)(C)C3)cc1` [C-ABW, 4-(5,5-Dimethyl-7-oxo-4,5,6,7-tetrahydro-benzoimidazol-1-yl)-benzoic acid methyl ester], the IC50 in experiment [1] amounted to 310 nM; in experiment [3] (setting [4]), 7500 nM. The molecule also showed a Selectivity in experiment [2] of 24.

In the case of `CC1(C)CC(=O)c2c(ncn2-c2ccc(C#N)cc2)C1` [C-ABX, 4-(5,5-Dimethyl-7-oxo-4,5,6,7-tetrahydro-benzoimidazol-1-yl)-benzonitrile], the concentration for half-maximal inhibition (IC50) in experiment [1] came out at 17 nM; in experiment [3] (setting [4]), 1300 nM. This molecule had a Selectivity in experiment [2] of 80.

As for `CC1(C)CC(=O)c2c(ncn2-c2cccc(C(F)(F)F)c2)C1` [C-ABZ, 6,6-Dimethyl-3-(3-trifluoromethyl-phenyl)-3,5,6,7-tetrahydro-benzoimidazol-4-one], the IC50 stood at 73 nM in experiment [1] and 27000 nM in experiment [3] (setting [4]). The molecule further yielded a Selectivity in experiment [2] of 370.

`CC1(C)CC(=O)c2c(ncn2-c2ccccc2)C1` [C-ACA, 6,6-Dimethyl-3-phenyl-3,5,6,7-tetrahydro-benzoimidazol-4-one]: the IC50 in experiment [1] turned out to be 250 nM; in experiment [3] (setting [4]) it was 12000 nM. Besides, the Selectivity in experiment [2] was 46.

Take `Cc1ccc(-n2cnc3c2C(=O)CC(C)(C)C3)cc1` [C-ACB, 6,6-Dimethyl-3-p-tolyl-3,5,6,7-tetrahydro-benzoimidazol-4-one]: the IC50 in experiment [1] was found to be 22 nM; in experiment [3] (setting [4]), 4400 nM. This molecule displayed a Selectivity in experiment [2] of 200.

As for `CN1C(=O)CCc2cc(-n3cnc4c3C(=O)CCC4)ccc21` [C-ACD, 1-Methyl-6-(7-oxo-4,5,6,7-tetrahydro-benzoimidazol-1-yl)-3,4-dihydro-1H-quinolin-2-one], the concentration for half-maximal inhibition (IC50) in experiment [1] came to 60 nM; in experiment [3] (setting [4]), 55000 nM. The molecule further gave a Selectivity in experiment [2] of 920.

Turning to `O=C1CC2(CCC2)Cc2ncn(-c3ccc(F)c(F)c3)c21` [C-ACE], the results for the IC50 in experiment [1] and in experiment [3] (setting [4]) were 20 nM and 630 nM, respectively. In experiment [2], this molecule came in with a Selectivity of 32.

As to `N#Cc1ccc(-n2cnc3c2C(=O)CC2(CCC2)C3)cc1Cl` [C-ACG, 3-(4-Cyano, 3-chlorophenyl)-6,6-spirocyclobutyl-3,5,6,7-benzimidazolo-4-one], the IC50 in experiment [1] is 12 nM; in experiment [3] (read-out: Cortisol Inhibition IC50; 11-deoxycortisol substrate, 150 units CYP11B1), 93 nM. This molecule also returned a Selectivity in experiment [2] of 7.5.

With `CN1C(=O)CCc2cc(-n3cnc4c3C(=O)CC3(CC3)C4)ccc21` [C-ACH, 3-(1-Methyl-2-oxo-3,4-dihydroquinolin-6-yl)spiro[5,7-dihydrobenzimidazole-6,1′-cyclopropane]-4-one], the IC50 in experiment [1] was 16 nM; in experiment [3] (setting [4]), 4900 nM. This molecule registered a Selectivity in experiment [2] of 300.

For `CC1(C)CC(=O)c2c(ncn2-c2ccc(C(F)(F)F)cc2)C1` [C-ACI, 6,6-Dimethyl-3-(4-trifluoromethyl-phenyl)-3,5,6,7-tetrahydro-benzoimidazol-4-one], the IC50 in experiment [1] was 62 nM; in experiment [3] (setting [4]), 18000 nM. In addition, the Selectivity in experiment [2] stood at 290.

On to `CC1(C)CC(=O)c2c(ncn2[C@H]2C[C@@H]3CC[C@H]2C3)C1` [C-ACL, 3-(1S,2S,3R)-Bicyclo[2.2.1]hept-2-1-6,6-dimethyl-3,5,6,7-tetrahydro-benzoimidazol-4-one], for which the results for the concentration for half-maximal inhibition (IC50) in experiment [1] and in experiment [3] (setting [4]) were 180 nM and 16000 nM, respectively. The molecule further had a Selectivity in experiment [2] of 87.

Regarding `COc1ccc2c(c1)CCC(n1cnc3c1C(=O)CC(C)(C)C3)C2` (stereo not drawn) [C-ACN, 3-(6-Methoxy-1,2,3,4-tetrahydro-naphthalen-2-yl)-6,6-dimethyl-3,5,6,7-tetrahydro-benzoimidazol-4-one], the results for the IC50 in experiment [1] and in experiment [3] (setting [4]) were 24 nM and 11000 nM, respectively. The same molecule had a Selectivity in experiment [2] of 460.

With `CC1(C)CC(=O)c2c(ncn2CC2CCCCC2)C1` [C-ACP, 3-Cyclohexylmethyl-6,6-dimethyl-3,5,6,7-tetrahydro-benzoimidazol-4-one], the IC50 is 24 nM in experiment [1] and 5900 nM in experiment [3] (setting [4]). The molecule further registered a Selectivity in experiment [2] of 240.

For `CC1(C)CC(=O)c2c(ncn2C2CCc3ccccc32)C1` (stereo not drawn) [C-ACQ, 3-Indan-1-yl-6,6-dimethyl-3,5,6,7-tetrahydro-benzoimidazol-4-one], the figures for the IC50 in experiment [1] and in experiment [3] (setting [4]) were 220 nM and more than 30000 nM, respectively. For the same molecule, the Selectivity in experiment [2] was determined as 130.

With `CN1C[C@@H](n2cnc3c2C(=O)CC(C)(C)C3)CCC1=O` [C-ACR, 6,6-Dimethyl-3-((S)-1-methyl-6-oxo-piperidin-3-yl)-3,5,6,7-tetrahydrobenzoimidazol-4-one], the IC50 in experiment [1] was 785 nM; in experiment [3] (setting [4]), more than 30000 nM. Moreover, in experiment [2], the Selectivity was found to be 38.

In the case of `CC1(C)CC(=O)c2c(ncn2C2CC3(COC3)C2)C1` [C-ACT, 6,6-Dimethyl-3-(2-oxa-spiro[3.3]hept-6-yl)-3,5,6,7-tetrahydro-benzoimidazol-4-one], the half-inhibitory concentration (IC50) in experiment [1] is 780 nM; in experiment [3] (setting [4]), more than 30000 nM. In addition, in experiment [2], the Selectivity was determined as 38.

As for `CC1(C)CC(=O)c2c(ncn2C2CC(c3ccccc3)C2)C1` (stereo not drawn) [C-ACU, 6,6-Dimethyl-3-(3-phenyl-cyclobutyl)-3,5,6,7-tetrahydro-benzoimidazol-4-one], the IC50 came to 110 nM in experiment [1] and 9400 nM in experiment [3] (setting [4]). Also, in experiment [2], the Selectivity came to 85.

For `CC1(C)CC(=O)c2c(ncn2C2CCc3ncncc3C2)C1` (stereo not drawn) [C-ACV, 6,6-Dimethyl-3-(5,6,7,8-tetrahydro-quinazolin-6-yl)-3,5,6,7-tetrahydro-benzoimidazol-4-one], the IC50 in experiment [1] is 860 nM; in experiment [3] (setting [4]), more than 30000 nM. In addition, in experiment [2], the Selectivity worked out at 35.

For the molecule `CC1(C)CC(=O)c2c(ncn2C2CCCCc3ccccc32)C1` (stereo not drawn) [C-ACW, 6,6-Dimethyl-3-(6,7,8,9-tetrahydro-5H-benzocyclohepten-5-yl)-3,5,6,7-tetrahydro-benzoimidazol-4-one], the IC50 is 24 nM in experiment [1] and 7200 nM in experiment [3] (setting [4]). The molecule also displayed a Selectivity in experiment [2] of 300.

Consider `CC1(C)CC(=O)c2c(ncn2CC2CCOC2)C1` (stereo not drawn) [C-ACX, 6,6-Dimethyl-3-(tetrahydro-furan-3-ylmethyl)-3,5,6,7-tetrahydro-benzoimidazol-4-one], for which the IC50 is 870 nM in experiment [1] and more than 30000 nM in experiment [3] (setting [4]). Also, the Selectivity in experiment [2] was determined as 35.

As to `CC1(C)CC(=O)c2c(ncn2Cc2ccc3[nH]ncc3c2)C1` [C-ACY, 3-(1H-Indazol-5-ylmethyl)-6,6-dimethyl-3,5,6,7-tetrahydro-benzoimidazol-4-one], the IC50 amounted to 110 nM in experiment [1] and 1700 nM in experiment [3] (setting [4]). Besides, in experiment [2], the Selectivity is 15.

For the molecule `COC(=O)c1ccc(Cn2cnc3c2C(=O)CC(C)(C)C3)cc1` [C-ACZ, 4-(5,5-Dimethyl-7-oxo-4,5,6,7-tetrahydro-benzoimidazol-1-ylmethyl)-benzoic acid methyl ester], the IC50 in experiment [1] worked out at 34 nM; in experiment [3] (setting [4]) it was 1400 nM. The Selectivity in experiment [2] is on record as 41.

For `CC1(C)CC(=O)c2c(ncn2CC2CC2)C1` [C-ADA, 3-Cyclopropylmethyl-6,6-dimethyl-3,5,6,7-tetrahydro-benzoimidazol-4-one], the concentration for half-maximal inhibition (IC50) worked out at 530 nM in experiment [1] and 12000 nM in experiment [3] (setting [4]). This molecule displayed a Selectivity in experiment [2] of 23.

For `CC1(C)CC(=O)c2c(ncn2Cc2ccc(-n3cncn3)cc2)C1` [C-ADB, 6,6-Dimethyl-3-(4-[1,2,4]triazol-1-yl-benzyl)-3,5,6,7-tetrahydro-benzoimidazol-4-one], the results for the concentration for half-maximal inhibition (IC50) in experiment [1] and in experiment [3] (setting [4]) were 540 nM and 7400 nM, respectively. The molecule also had a Selectivity in experiment [2] of 14.

With `Cc1nnsc1Cn1cnc2c1C(=O)CC(C)(C)C2` [C-ADC, 6,6-Dimethyl-3-(4-methyl-[1,2,3]thiadiazol-5-ylmethyl)-3,5,6,7-tetrahydro-benzoimidazol-4-one], the IC50 in experiment [1] is 250 nM; in experiment [3] (setting [4]), 45000 nM. The molecule further displayed a Selectivity in experiment [2] of 180.

With `CN1CCOc2cc(Cn3cnc4c3C(=O)CC(C)(C)C4)cnc21` [C-ADD, 6,6-Dimethyl-3-(4-methyl-3,4-dihydro-2H-pyrido[3,2-b][1,4]oxazin-7-ylmethyl)-3,5,6,7-tetrahydro-benzoimidazol-4-one], the figures for the IC50 in experiment [1] and in experiment [3] (setting [4]) were 540 nM and 11000 nM, respectively. This molecule also showed a Selectivity in experiment [2] of 20.

Take `CC1(C)CC(=O)c2c(ncn2C2CCc3ccccc3C2)C1` (stereo not drawn) [C-ADH, 6,6-Dimethyl-3-(1,2,3,4-tetrahydro-naphthalen-2-yl)-3,5,6,7-tetrahydro-benzoimidazol-4-one]: the half-maximal inhibitory concentration (IC50) in experiment [1] was 10 nM; in experiment [3] (setting [4]), 29000 nM. Besides, in experiment [2], the Selectivity is recorded as 2900.

Take `CC1(C)CC(=O)c2c(ncn2CC2CCOCC2)C1` [C-ADI, 6,6-Dimethyl-3-(tetrahydro-pyran-4-ylmethyl)-3,5,6,7-tetrahydro-benzoimidazol-4-one]: the results for the IC50 in experiment [1] and in experiment [3] (setting [4]) were 470 nM and 19000 nM, respectively. In experiment [2], this molecule returned a Selectivity of 41.

For `O=C1CCCc2ncn(C3CCc4ccccc4C3)c21` (stereo not drawn) [C-ADJ, 3-(1,2,3,4-Tetrahydro-naphthalen-2-yl)-3,5,6,7-tetrahydro-benzoimidazol-4-one], the IC50 came to 2.8 nM in experiment [1] and 1200 nM in experiment [3] (setting [4]). In addition, in experiment [2], the Selectivity stood at 420.

For `O=C1CCCc2ncn(C3Cc4ccccc4C3)c21` [C-ADK, 3-Indan-2-yl-3,5,6,7-tetrahydro-benzoimidazol-4-one], the IC50 in experiment [1] stood at 21 nM; in experiment [3] (setting [4]) it was 8400 nM. Moreover, the Selectivity in experiment [2] is on record as 400.
